Source: patent US12162858B2, “Quinoline derivatives as inhibitors of AXL/MER RTK and CSF1R” (QURIENT CO., LTD., priority 2018, dated 2024)

molecular target: T1, Axl (Homo sapiens, UniProt P30530); assay: Cellular Axl inhibition ELISA (p-Axl, Gas6-induced) using H1299 cells; format: cell-based; design: especially H1299 cell endogenously expresses Axl; endogenous in cells; host or cells: H1299; settings: Elisa, comparison of compounds of present invention (**) vs compounds of WO2016/166250 (*), read-out: Cellular activity Axl (H1299) (IC50)
T1 sequence (P30530 26-894): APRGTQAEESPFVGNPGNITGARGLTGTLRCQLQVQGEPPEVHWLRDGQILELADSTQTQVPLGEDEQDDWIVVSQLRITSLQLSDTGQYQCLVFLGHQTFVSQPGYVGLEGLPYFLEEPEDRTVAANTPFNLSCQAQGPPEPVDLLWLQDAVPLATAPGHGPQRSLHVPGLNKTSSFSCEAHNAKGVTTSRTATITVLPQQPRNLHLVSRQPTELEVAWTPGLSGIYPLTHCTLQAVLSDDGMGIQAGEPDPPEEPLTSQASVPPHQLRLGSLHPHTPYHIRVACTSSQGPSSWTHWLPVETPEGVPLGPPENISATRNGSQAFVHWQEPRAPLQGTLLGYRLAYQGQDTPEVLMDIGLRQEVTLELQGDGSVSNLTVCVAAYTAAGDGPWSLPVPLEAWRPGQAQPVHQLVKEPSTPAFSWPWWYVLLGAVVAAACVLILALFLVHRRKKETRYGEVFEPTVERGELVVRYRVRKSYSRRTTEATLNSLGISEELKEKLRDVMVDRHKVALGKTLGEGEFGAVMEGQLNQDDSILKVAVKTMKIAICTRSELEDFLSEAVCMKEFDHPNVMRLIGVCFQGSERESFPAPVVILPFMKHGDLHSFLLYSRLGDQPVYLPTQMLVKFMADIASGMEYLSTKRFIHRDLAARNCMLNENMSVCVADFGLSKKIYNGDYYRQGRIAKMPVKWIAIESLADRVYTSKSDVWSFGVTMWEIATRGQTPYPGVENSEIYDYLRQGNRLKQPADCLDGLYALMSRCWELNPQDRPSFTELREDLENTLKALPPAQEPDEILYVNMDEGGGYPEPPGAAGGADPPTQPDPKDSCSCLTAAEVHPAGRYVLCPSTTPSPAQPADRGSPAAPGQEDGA
Experimental: Axl is expressed in several of malignant cancer cells; especially H1299 cell endogenously expresses Axl; and an increased phosphorylation of Axl (p-Axl) can be observed, when induced by the Axl ligand, Ga6.
The H1299 cells should be 40-80% confluent in the cell culture flask. Then cells are washed with DPBS and trypsinized. After centrifugation, the cell pellet is re-suspended with pre-warmed culture medium (RPMI1640, 10% FBS) and cells are separated by pipetting 6 times up and down with a 10 ml serological pipette. The cell suspension was diluted to a final concentration of 1.25×10^5 cells/ml. Then 80 μl/well cell suspension is added to the plate. Cell-plates are incubated at 37° C./5% CO2 overnight. Compounds were dissolved by DMSO to 10 mM, and kept in nitrogen cabinet. Prepare the compounds stock plate, the reference compounds concentration starts at 0.50 mM (5 μl+95 μl DMSO), and the tested compounds start at 1.5 mM (6 μl+34 μl DMSO); Then make a 3-fold dilution series (10 doses) compounds. Then dilute compounds by the medium in the mid plate (2 μl compounds+198 μl medium). Transfer 20 μl diluted compounds from mid plate to the cell coated plate. Cell-plates are incubated at 37° C./5% CO2 for 24 h. Add 25 μl of Human Gas6 (1000 ng/ml) to 96-well plate; the final concentration of Human Gas6 is 200 ng/ml. Incubate the plates at 37° C./5% CO2 for 1 h. Remove medium and wash cells once with 300 ul/well ice-cold 1×PBS. Then remove PBS and add 100 μl/well ice-cold 1× Cell Lysis Buffer to 96-well plate. The plate is shaken for 40 min at 4° C. Then plates can be stored at −20° C. After the micro-wells strips have reached room temperature, break off the required number of micro-wells. Place the micro-wells in the strip holder. Unused micro-wells must be resealed and stored at 4° C. immediately. Add 60 μl of cell lysate to the appropriate well. Seal with tape and press firmly onto top of micro-wells. Incubate the plate at 37° C. for 2 h. Gently remove the tape and wash wells 5 times with 1× Wash Buffer, 300 μl each time for each well. Add 100 μl of reconstituted Detection Antibody (green color) to each well. Seal with tape and incubate the plate at 37° C. for 1 h. Repeat wash procedure. Add 100 μl of reconstituted HRP Linked secondary antibody to each well. Seal with tape and incubate the plate at 37° C. for 30 min. Repeat wash procedure. Add 100 μl of TMB Substrate to each well. Seal with tape and incubate the plate at 37° C. for 15 min. Add 100 μl of STOP Solution to each well. Shake gently for a few seconds. Read absorbance at 450 nm within 30 min after adding STOP Solution. Calculations and Formulas: The following calculations and formulas are used for data analysis using XL Fit software: The curve fitting was made using the Sigmoidal Dose-Response Model (Fit model, 205).

Compound	IC50
COc1cc2nccc(Oc3ccc(NC(=O)c4n[nH]cc4OCC(F)(F)F)nc3)c2cc1OC [Compound 16]	44 nM
CCn1cc(OCC(F)(F)F)c(C(=O)Nc2ccc(Oc3ccnc4cc(OC)c(OC)cc34)cn2)n1 [Compound 4]	3.4 nM

same assay, conditions: read-out: Cellular Axl activity by H1299 Elisa (IC50)

Compound	IC50
COc1cc2nccc(Oc3ccc(NC(=O)c4nn(CC(C)O)cc4OCC4CCC4)nc3)c2cc1OC (centres unmarked) [Compound 163]	< 500 nM
COc1cc2nccc(Oc3ccc(NC(=O)c4nn(CC(C)C)cc4OCC(F)(F)F)cn3)c2cc1OC [Compound 103]	< 500 nM
CNCCn1cc(OCC(F)(F)F)c(C(=O)Nc2ccc(Oc3ccnc4cc(OC)c(OC)cc34)nn2)n1 [Compound 127]	≥ 1000 nM
CCCn1cc(OCC2CNC2)c(C(=O)Nc2ccc(Oc3ccnc4cc(OC)c(OC)cc34)cn2)n1 [Compound 159]	≥ 1000 nM
COc1cc2nccc(Oc3ccc(NC(=O)c4nn(C5CC5)cc4OCC4CCC4)nc3)c2cc1OC [Compound 111]	< 500 nM
COc1cc2nccc(Oc3ccc(NC(=O)c4nn(C5CC5)cc4OCC(F)(F)F)nn3)c2cc1OC [Compound 112]	< 500 nM
COc1cc2nccc(Oc3ccc(NC(=O)c4nn(C5CC5)cc4NCC(F)(F)F)nc3)c2cc1OC [Compound 145]	< 500 nM
COc1cc2nccc(Oc3ccc(NC(=O)c4nn(C5CC5)cc4OC(C)C)nc3)c2cc1OC [Compound 108]	< 500 nM
CCCn1cc(OCCN(C)C)c(C(=O)Nc2ccc(Oc3ccnc4cc(OC)c(OC)cc34)c(F)c2)n1 [Compound 165]	< 500 nM
COc1cc2nccc(Oc3ccc(NC(=O)c4nn(CCOC5CC5)cc4OCC(F)(F)F)c(F)c3)c2cc1OC [Compound 115]	< 500 nM
CCCn1cc(OCC(F)(F)F)c(C(=O)Nc2ccc(Oc3ccnc4cc(OC)c(OC)cc34)c(C(F)(F)F)c2)n1 [Compound 114]	< 500 nM
COc1cc2nccc(Oc3ccc(NC(=O)c4nn(C5CCNC5)cc4OCC(F)(F)F)cn3)c2cc1OC (centres unmarked) [Compound 132]	≥ 1000 nM
CCCn1cc(OCCOC)c(C(=O)Nc2ccc(Oc3ccnc4cc(OC)c(OC)cc34)cn2)n1 [Compound 105]	< 500 nM
COc1cc2nccc(Oc3ccc(NC(=O)c4nn(CCOC5CC5)cc4OCC(F)(F)F)nn3)c2cc1OC [Compound 120]	500 to 1000 nM
COc1cc2nccc(Oc3ccc(NC(=O)c4nn(CCO)cc4OCC(F)(F)F)cn3)c2cc1OC [Compound 129]	≥ 1000 nM
COc1cc2nccc(Oc3ccc(NC(=O)c4nn(C5CCN(C)C5)cc4OCC(F)(F)F)cc3C)c2cc1OC (centres unmarked) [Compound 98]	≥ 1000 nM
CCCn1cc(OCC(F)F)c(C(=O)Nc2ccc(Oc3ccnc4cc(OC)c(OC)cc34)cn2)n1 [Compound 12]	< 500 nM
CCn1cc(OCC(F)(F)F)c(C(=O)Nc2ccc(Oc3ccnc4cc(OC)c(OC)cc34)cn2)n1 [Compound 4]	< 500 nM
COc1cc2nccc(Oc3ccc(NC(=O)c4nn(C5CCNC5)cc4OCC(F)(F)F)nn3)c2cc1OC (centres unmarked) [Compound 122]	≥ 1000 nM

Now from value to compound:

IC50	Compound
< 500 nM	COc1cc2nccc(Oc3ccc(NC(=O)c4nn(C5CC5)cc4OC(C)C)nn3)c2cc1OC [Compound 147]
< 500 nM	COc1cc2nccc(Oc3ccc(NC(=O)c4nn(CCN(C)C)cc4OCC(F)(F)F)nc3)c2cc1OC [Compound 9]
< 500 nM	COc1cc2nccc(Oc3ccc(NC(=O)c4nn(C5CC5)cc4OCCF)nc3)c2cc1OC [Compound 110]
500 to 1000 nM	COc1cc2nccc(Oc3ccc(NC(=O)c4nn(CCOC5CC5)cc4OCC(F)(F)F)cc3C)c2cc1OC [Compound 117]
< 500 nM	COc1cc2nccc(Oc3ccc(NC(=O)c4nn(C5CCCC5)cc4OCC(F)(F)F)nn3)c2cc1OC [Compound 121]
< 500 nM	COc1cc2nccc(Oc3ccc(NC(=O)c4nn(C5CC5)cc4OCC4COC4)nn3)c2cc1OC [Compound 161]
≥ 1000 nM	COc1cc2nccc(Oc3ccc(NC(=O)c4nn(C5CCN(C)C5)cc4OCC(F)(F)F)nn3)c2cc1OC (centres unmarked) [Compound 157]
≥ 1000 nM	COc1cc2nccc(Oc3ccc(NC(=O)c4nn(CCN)cc4OCC(F)(F)F)cn3)c2cc1OC [Compound 135]
< 500 nM	CNCCn1cc(OCC(F)(F)F)c(C(=O)Nc2ccc(Oc3ccnc4cc(OC)c(OC)cc34)c(F)c2)n1 [Compound 155]
500 to 1000 nM	COc1cc2nccc(Oc3ccc(NC(=O)c4nn(C5CCN(C)C5)cc4OCC(F)(F)F)cc3)c2cc1OC (centres unmarked) [Compound 100]
< 500 nM	CCn1cc(OCC2CCC2)c(C(=O)Nc2ccc(Oc3ccnc4cc(OC)c(OC)cc34)cn2)n1 [Compound 8]
< 500 nM	COc1cc2nccc(Oc3ccc(NC(=O)c4n[nH]cc4OCC(F)(F)F)nc3)c2cc1OC [Compound 16]
< 500 nM	COCCOc1cn(CC(C)O)nc1C(=O)Nc1ccc(Oc2ccnc3cc(OC)c(OC)cc23)cn1 (centres unmarked) [Compound 150]
< 500 nM	COc1cc2nccc(Oc3ccc(NC(=O)c4nn(C5CC5)cc4OCC(F)F)nn3)c2cc1OC [Compound 162]
